Values belong to the compound of their own block, whether it stands above or below them.
Tests used:
[1] = tested on: PMA induced mouse ear edema; test: phorbol myristate acetate (PMA) induced mouse ear edema assay; assay type: in vivo; conditions: topical 50 µg/ear with PMA 2 µg/ear, 3 h 20 min; (1/SA) in milligrams of inhibited edema per mol of drug; n = 10
Method: The compounds were then assessed using the standard phorbol myristate acetate (PMA) induced mouse ear edema assay to determine their anti-inflammatory specific activity. In this assay, the specific activity of the drug, SA, is expressed as log(1/SA). For the mouse ear model, the molar concentration of the drug was calculated using Equation 2: SA = (mol of drug) (∆ in edema from control)^−1(2) where the difference in edema from control, ∆, refers to the difference in the average weight of the mouse ear between treated and untreated biopsies. The outcome, (1/SA), is expressed in units of milligrams of inhibited edema per mol of drug. […] Note Table 1.
Male Swiss Webster albino mice were briefly anesthetized with halothane. Compounds were topically applied to the inside pinnae of the ears of the mice in a solution containing the edema-causing irritant PMA. PMA alone (2 µg/ear) or in combination with the test compound (50 µg/ear) were dissolved in acetone and applied to the left ears (5 mice per treatment group, n = 10/compound), and acetone alone was applied to all right ears. After 3 h and 20 min incubation, the mice were euthanized, the ears removed and a 6 mm diameter biopsy was taken from the center of each ear and immediately weighed. Edema was measured by subtracting the weight of the right ear (acetone control) from the weight of the left ear (treated). Compounds that were not soluble in 100% acetone were dissolved in 20% ethanol: 80% acetone v/v. Results were recorded as % decrease (inhibition) in edema relative to the PMA control group edema.

[2] = log P by reverse phase HPLC; assay type: physicochemical; conditions: RP-HPLC retention time vs toluene and triphenylene; n = 4; read-out: Direct log P
Source text: Reverse phase HPLC (RP-HPLC) has been previously used to measure the logarithm of the octanol-water partition coefficient (log P) of many compounds [11]. To obtain the log P values recorded herein, the retention times of the compounds of interest (Table 1) along with the retention times of internal standards (toluene and triphenylene) were utilized. The resulting quantities were then substituted into Equation 1: [drawing 1] (1) where the abbreviation tol refers to toluene, triph to triphenylene, and t to the retention time. Details concerning how this equation was derived have been described by Donovan and Pescatore.
HPLC recordings were achieved using a Hewlett Packard HP/Agilent 1100 HPLC system connected to a 1 cm × 4.6 mm, 5 µm aPHera™ C18 Polymer HPLC column (catalog number 56130AST). Colorimetric assays were performed on a Molecular Devices Vmax microplate reader.

wound healing = tested on: wound healing; parameters: method as in PMID 20363514; conditions: topical; ref [5]; cited from earlier work
early wound repair = tested on: early wound repair; parameters: method as in ref [7] = [7]; 7. Vimrx Pharmaceuticals New Drug Application VM 301 for Use in Phase I/IIA Clinical Trials IND 60,606 12 7 2000; conditions: Phase II, double blind; ref [7]; cited from earlier work
[3] = tested on: human adenosine A1 receptor; parameters: method as in doi:10.1016/j.tet.2009.09.021; conditions: DMSO formulation; high amount of non-specific binding; ref [4]; cited from earlier work
human neutrophils = tested on: human neutrophils; parameters: method as in ref [3] = [3]; 3. Luedke E.S. The Identification and Characterization of Pseudopterosins: Anti-Inflammatory Agents Isolated from the Gorgonian Coral Pseudopterogorgia elisabethae Ph.D. Thesis University of Californi; conditions: in vitro; ref [3]; cited from earlier work
[4] = stability of the cyclodextrin inclusion complex by HPLC and NMR; assay type: physicochemical; conditions: PsA inclusion complex in HPβCD; observed by HPLC and NMR
Method: Hydroxypropyl-beta-cyclodextrin (HPβCD) was added to DI-water at a concentration of 20% w/v. The mixture was then vortexed and sonicated briefly to yield a colorless, transparent, slightly viscous liquid. Separately, a given quantity of pseudopterosin A (PsA) was then solubilized in 100% methanol to yield a yellow, transparent liquid. An aliquot of this solution was then added to a culture tube and dried under inert atmosphere yielding an off-white solid. The previously prepared hydroxypropyl-beta-cyclodextrin solution was then added and vortexed for 10 min. The mixture was orbitally shaken at 4 °C for at least 7 days prior to use to ensure equilibration of the cyclodextrin drug complex. […] Stability was conserved at least 14 days, as observed by HPLC and NMR.

[5] = tested on: human adenosine A3 receptor; parameters: method as in doi:10.1016/j.tet.2009.09.021; conditions: DMSO formulation; high amount of non-specific binding; ref [4]; cited from earlier work
[6] = tested on: human adenosine A2B receptor; parameters: method as in doi:10.1016/j.tet.2009.09.021; conditions: DMSO formulation; high amount of non-specific binding; ref [4]; cited from earlier work
HUVEC cells [7] = test: scratch migration assay; assay type: cell-based, human; conditions: 3.9 × 10^−8 M PsA in 0.05% HPβCD, depleted media, over 10 h; n = 16
Method: The in vitro scratch assay is commonly used to simulate cellular events that accompany the presence of a wound. Here, a thin scratch made in a cellular monolayer mimics the wound. The migration of cells in response to the scratch is then monitored using microscopic images at various time points to determine the rate of migration.
(§1) For each experiment cells were split at 80% confluence. All experiments were conducted between generations 4 and 10.
HUVEC were harvested from a T-75 plate by trypsinization and resuspended in EGM-2 complete culture media and were plated into T-25 cell culture flasks and allowed to grow to approx 90% confluence. EGM-2 complete culture media was then removed and replaced with starvation media for 8 h. A uniform scratch in the monolayer was then produced using a sterile pipette tip approximately 500 µm in width. Starvation media was replaced with 5 mL of either PsA in drug dosing media, or HPβCD in drug dosing media, or HPβCD in EGM-2 complete culture media. Microscopic images were taken at 400 times magnification every 5 min beginning at t = 0, and continuing until t = 10 h. Images were analyzed by determining the distance between cells on either side of scratch over time. Percent scratch closure was set to be a function of 1 − (average distance at each time point/average width of scratch).

HUVEC cells [8] = test: WST-1 cell proliferation assay; assay type: cell-based, human
Method: Figure 4 PsA Potently Activates HUVEC Proliferation. […] Note saturation kinetics. Cytotoxicity is illustrated as a vertical dashed line at 1.5 × 10^−5 M in all vehicles tested. The percentage increase was calculated as [100 × (T/C)] where T/C is defined as […]. Data are presented as mean ± SEM (n = 16).
as §1
HUVEC were harvested from a T-75 plate by trypsinization and resuspended in EGM-2 complete culture media. Cells were plated at 500 cells per well of a 96-well plate and incubated overnight at 37 °C in a 5% CO2 atmosphere. EGM-2 complete culture media was removed and replaced with starvation media for 8 h. During this time, drug dilutions were prepared in growth factor depleted media. Starvation media was replaced with drug dilution in growth factor depleted media and incubated at 37 °C in a 5% CO2 atmosphere. After 41 h, 10 µL of WST-1 reagent was added to each well and incubated for 1 h. Plates were then read on a multiplate reader at 450 nm with background reference of 650 nm.

HUVEC cells [9] = tested on: HUVEC cells; parameters: method as in PMID 2875457, PMID 3574294, PMID 21556163; conditions: all formulation systems tested; ref [1],[22],[23]; cited from earlier work
[10] = tested on: human adenosine A2A receptor; parameters: method as in doi:10.1016/j.tet.2009.09.021; conditions: DMSO formulation; high amount of non-specific binding; ref [4]; cited from earlier work
aqueous solubility = assay type: physicochemical; conditions: without DMSO, Cremophor or cyclodextrin
Source text: […] Reverse phase HPLC was utilized as described in Section 3.3 above to confirm the quantity of solubilized drug that remained unchanged between formulations.

HUVEC cells [11] = test: HUVEC cytotoxicity elicited by drug formulations (LDH release); conditions: vehicle alone: 0.02% DMSO, 0.016% Cremophor EL, 0.05% HPβCD; 42 h, growth factor depleted media, 37 °C; n = 4
Method: HUVEC LDH release with (A) 0.02% DMSO (B) 0.016% Cremophor EL and (C) 0.05% HPβCD after 42 h in growth factor depleted media at 37 °C. Data are presented as mean ± SEM (n = 4).
Dimethylsulfoxide (DMSO) is the most widely utilized solvent, and is used extensively in biological assays for attaining aqueous solubility for non-polar drug molecules. To determine the potential cytotoxic effects associated with DMSO, Cremophor EL, and HPβCD in a HUVEC system, we report three conditions that were chosen after considering the minimum required vehicle concentration for PsA (drug) solubility.
All cell culture experiments were performed using HUVEC cells initially seeded at 3 × 10^5 cells/75 cm^2 flask and fed every 1–2 days with fresh EGM-2 complete culture media (EBM-2 basal media with hVEGF, hFGF, hIGF, hEGF, hydrocortisone, ascorbic acid, heparin, 2% FBS, and GA-1000). For each experiment cells were split at 80% confluence. All experiments were conducted between generations 4 and 10. Starvation media consisted of EBM-2 basal media with 0.1% FBS, and GA-1000 (antibiotic mixture). Growth factor depleted media consisted of EBM-2 basal media with 2% FBS, hydrocortisone, ascorbic acid, heparin, and GA-1000.

SMILES: COc1c(C)c2c3c(c1O[C@@H]1OC[C@@H](O)[C@H](O)[C@H]1O)[C@@H](C)CC[C@@H]3[C@@H](C)C[C@@H]2C=C(C)C [Analog 3, PsA methyl ether]
efficacy in wound healing (wound healing): topical efficacy
effect on early wound repair above vehicle alone (early wound repair): increased angiogenesis, granulation, and re-epithelialization
chromatographic logP [2]: 4.37 ± 0.02

SMILES: CC(C)=C[C@H]1C[C@H](C)[C@H]2CC[C@H](C)c3c(O[C@@H]4OC[C@@H](O)[C@H](O)[C@H]4O)c(O)c(C)c1c32 [Analog 4, Pseudopterosin A]
binding affinity [3]: micromolar
effect on calcium ionophore induced degranulation and infiltration (human neutrophils): inhibited
stability conserved [4]: at least 14 days
binding affinity [5]: micromolar
binding affinity [6]: micromolar
rate of HUVEC cell migration (HUVEC cells [7]): 9.98 ± 1.2 µm h^−1
increase in proliferation (HUVEC cells [8]; 1.0 × 10^−7 M PsA in HPβCD): 25%
increase in potency of HPβCD formulation over DMSO formulation (HUVEC cells [8]; HUVEC proliferation): 200 fold
increased HUVEC proliferation (HUVEC cells [8]; PsA in 0.016% Cremophor EL, 42 h): 15%
increase in proliferation (HUVEC cells [8]; PsA in 0.02% DMSO, 42 h, compared to DMSO alone): 30% ± 4.8%
Kd (HUVEC cells [8]; PsA in 0.05% HPβCD, from analysis of proliferation dose response): 14.5 nM
concentration at which cytotoxicity occurred (HUVEC cells [8]; all formulations/vehicles tested in HUVEC cells): ≥ 15 µM
cytotoxic concentration (HUVEC cells [9]): > 10 µM
binding affinity [10]: micromolar
log(1/SA) (anti-inflammatory specific activity) [1]: 8.08 ± 0.01 mg/mol
solubility in an aqueous medium (aqueous solubility): low solubility
chromatographic logP [2]: 4.42 ± 0.06

SMILES: C[S+](C)[O-] [DMSO, Dimethylsulfoxide]
LDH release (cytotoxicity) (HUVEC cells [11]): 18.4% ± 1.6%

Further lines, with some results ahead:

chromatographic logP [2]: 3.95 ± 0.02
SMILES: CC(C)=CC1CC(C)C2CCC(C)C3=C2C1=C(C)C(=O)C31OC2OC(C)C(O)C(O)C2O1 (stereo not shown) [Analog 1, pseudopterosin keto ketal]
log(1/SA) (anti-inflammatory specific activity) [1]: 7.63 ± 0.06 mg/mol

chromatographic logP [2]: 4.59 ± 0.05
SMILES: CC(C)=C[C@H]1C[C@H](C)[C@H]2CC[C@H](C)c3c(O[C@@H]4O[C@@H](C)[C@@H](O)[C@@H](O)[C@@H]4O)c(O)c(C)c1c32 [Analog 5, iso-PsE]
log(1/SA) (anti-inflammatory specific activity) [1]: 8.02 ± 0.02 mg/mol
